In patent US20260035367A1 (Celgene Corporation, priority 2021, published 2026):
Where two headings read alike, the source gives them in different places.

Tests used:
[1] = molecular target: T1, Recombinant human PKC-delta (His-tagged 345-676) (Homo sapiens, UniProt Q05655); test: PKC-delta inhibition assay (HTRF KinEASE kit); assay type: biochemical; conditions: ratio, PKC-theta vs PKC-delta HTRF; for PKC-theta/PKC-delta selectivity (binned): binned A to G
T1 construct: PKC-delta (His-tagged 345-676); His
Method: PKC-theta and PKC-delta biochemical activities were measured using the PKC-theta HTRF KinEASEkit kit, according to manufacturer's instructions (Cisbio, catalogue number 61ST1PEJ). Briefly, the kinase buffer component of the kit was supplemented with 10 mM MgCl2, 1 mM DTT and 0.1% Tween 20. […] The streptavidin_XL665 and STK antibody-cryptate detection reagents were mixed according to the manufacturer's instructions. Test compounds were diluted in DMSO in a series of 10 semi-log step doses; 10 nL of each compound dose were dispensed in 384 well plates. […] The reaction was started by addition of the substrate and ATP and incubated at 25° C. for 30 minutes or 20 minutes for the PKC-theta and PKC-delta assays, respectively. The detection reagents were added, and the plate was incubated in the dark for 2 hours. […] The ratio of acceptor and donor emission signals was calculated for each well.

[2] = molecular target: T2, Recombinant human PKC-theta (His-tagged 362-706) (Homo sapiens, UniProt Q04759); test: PKC-theta inhibition assay (HTRF KinEASE kit); assay type: biochemical; conditions: ATP 6.5 μM, STK substrate 525 nM
T2 construct: Recombinant human PKC-theta (His-tagged 362-706); His
Method in brief: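 IC50 values were from 4-parameter logistic fits of percent inhibition, based on acceptor/donor HTRF ratios over 10 semi-log compound doses. Kinase reactions, started with substrate plus ATP, ran 30 min at 25 °C in buffer supplemented with 10 mM MgCl2, 1 mM DTT and 0.1% Tween 20; detection lasted 2 h.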

[3] = tested on: IL-2 secretion by human effector memory T cells (TEM); test: Effector memory T cells IL-2 release assay (CD3/CD28 stimulation, HTRF IL-2 detection); assay type: cell-based; conditions: Homo sapiens, T-cell, 24 h
Method in brief: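 Human effector memory T cells from healthy-donor buffy coats were exposed in triplicate to ten semi-log doses of compound in 0.1% DMSO. The cells were stimulated and incubated 24 h at 37 °C. Secreted IL-2 in the supernatant was measured by HTRF.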

[4] = binned A to H, read-out: PKC-theta HTRF pIC50 (binned) (converted)
[5] = read-out: PKC-theta HTRF pIC50 (converted)
[6] = binned A to G, read-out: PKC-theta IL2 pIC50 (binned) (converted)
[7] = read-out: PKC-theta IL2 pIC50 (converted)

T1 sequence (Q05655 345-676): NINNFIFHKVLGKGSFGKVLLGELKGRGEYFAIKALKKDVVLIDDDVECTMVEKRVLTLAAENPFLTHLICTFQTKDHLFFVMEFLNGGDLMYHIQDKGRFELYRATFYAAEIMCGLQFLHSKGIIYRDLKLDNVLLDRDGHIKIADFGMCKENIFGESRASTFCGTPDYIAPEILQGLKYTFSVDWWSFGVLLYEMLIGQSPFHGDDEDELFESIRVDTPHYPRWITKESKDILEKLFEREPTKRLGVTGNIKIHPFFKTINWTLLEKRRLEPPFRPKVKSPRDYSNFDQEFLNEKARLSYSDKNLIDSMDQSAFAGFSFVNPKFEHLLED
T2 sequence (Q04759 362-706): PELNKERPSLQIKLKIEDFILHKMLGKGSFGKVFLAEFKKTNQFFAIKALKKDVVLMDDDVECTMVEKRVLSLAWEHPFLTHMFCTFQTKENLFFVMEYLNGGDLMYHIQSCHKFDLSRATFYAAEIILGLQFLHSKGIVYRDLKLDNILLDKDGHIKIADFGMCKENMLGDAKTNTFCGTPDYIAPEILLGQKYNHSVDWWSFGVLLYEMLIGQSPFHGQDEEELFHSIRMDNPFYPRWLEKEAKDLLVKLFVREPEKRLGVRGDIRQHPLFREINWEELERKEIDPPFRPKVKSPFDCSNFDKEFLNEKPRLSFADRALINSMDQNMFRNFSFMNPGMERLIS

| Structure (SMILES) | PKC-theta/PKC-delta selectivity [1] | PKC-theta/PKC-delta selectivity (binned) [1] | IC50 [2, 4] | IC50 [2, 5] | IC50 [3, 6] | IC50 [3, 7] |
| --- | --- | --- | --- | --- | --- | --- |
| CC1(C)C(=O)Nc2nccc(-c3cccc(S(=O)(=O)N4CCNCC4)c3)c21 [Example 42] | 1 | F (a ratio of between 1 and 5) | > 1000 nM | 2000 nM | > 1000 nM | 10000 nM |
| CC1(C)C(=O)Nc2nccc(-c3cccc(C4(CO)CCNC4)c3)c21 (stereo not drawn) [Example 43] | 3 | F (a ratio of between 1 and 5) | 3.16 to 10 nM | 7.94 nM | 316 to 1000 nM | 631 nM |
| CC1(C)C(=O)Nc2nccc(-c3cccc(C4(CN)COC4)c3)c21 [Example 44] | 4 | F (a ratio of between 1 and 5) | 100 to 316 nM | 200 nM | > 1000 nM | 10000 nM |
| CC1(C)C(=O)Nc2nccc(-c3cccc(C4CCNCC4)c3)c21 [Example 45] | 2 | F (a ratio of between 1 and 5) | 100 to 316 nM | 200 nM | > 1000 nM | 3980 nM |
| CC1(O)C(=O)Nc2nccc(-c3cc(F)cc(N4CCNCC4)c3)c21 (stereo not drawn) [Example 46] | 3 | F (a ratio of between 1 and 5) | 10 to 31.6 nM | 12.6 nM | 100 to 316 nM | 251 nM |
| CC1(C)C(=O)Nc2nccc(-c3cccc(OC4CCNCC4)c3)c21 [Example 47] | 2 | F (a ratio of between 1 and 5) | 100 to 316 nM | 316 nM | > 1000 nM | 2510 nM |
| CC1(C)C(=O)Nc2nccc(-c3cccc(N4CCNCC4)c3Cl)c21 [Example 48] | 1 | G (a ratio of 0 to 1) | > 1000 nM | 1580 nM | > 1000 nM | 10000 nM |
| CC1(Cc2ccccc2)C(=O)Nc2nccc(-c3cccc(N4CCNCC4)c3)c21 (stereo not drawn) [Example 49] | 1 | F (a ratio of between 1 and 5) | 316 to 1000 nM | 1000 nM | > 1000 nM | 3980 nM |
| CC(C)[C@H]1CN(c2cccc(-c3ccnc4c3C(C)(C)C(=O)N4)c2)CCN1 [Example 50] | 2 | F (a ratio of between 1 and 5) | 31.6 to 100 nM | 79.4 nM | > 1000 nM | 1000 nM |
| CC[C@H]1CN(c2cccc(-c3ccnc4c3C(C)(C)C(=O)N4)c2)CCN1 [Example 51] | 3 | F (a ratio of between 1 and 5) | 31.6 to 100 nM | 79.4 nM | > 1000 nM | 1260 nM |
| C[C@H]1CN(c2cccc(-c3ccnc4c3C(C)(C)C(=O)N4)c2)CCN1 [Example 52] | 2 | F (a ratio of between 1 and 5) | 100 to 316 nM | 126 nM | > 1000 nM | 1580 nM |
| CC1(C)C(=O)Nc2nccc(-c3cc(C#N)cc(N4CCNCC4)c3)c21 [Example 53] | 3 | F (a ratio of between 1 and 5) | 100 to 316 nM | 251 nM | > 1000 nM | 1580 nM |
| C[C@@H]1CN(c2cccc(-c3ccnc4c3C(C)(C)C(=O)N4)c2)CCN1 [Example 54] | 3 | F (a ratio of between 1 and 5) | 31.6 to 100 nM | 100 nM | > 1000 nM | 2000 nM |
| CC1(O)C(=O)Nc2nccc(-c3cc(Cl)cc(N4CCNCC4)c3)c21 (stereo not drawn) [Example 55] | 9 | E (a ratio of between 5 and 10) | 10 to 31.6 nM | 10 nM | 316 to 1000 nM | 398 nM |
| CC1(O)C(=O)Nc2nccc(-c3cc(N4CCNCC4)cc(C(F)(F)F)c3)c21 (stereo not drawn) [Example 56] | 14 | D (a ratio of between 10 and 20) | 10 to 31.6 nM | 20 nM | 316 to 1000 nM | 794 nM |
| COC1(C)C(=O)Nc2nccc(-c3cc(F)cc(N4CCNCC4)c3)c21 (stereo not drawn) [Example 57] | 6 | E (a ratio of between 5 and 10) | 31.6 to 100 nM | 50.1 nM | 316 to 1000 nM | 631 nM |

| Structure (SMILES) | PKC-theta/PKC-delta selectivity [1] | PKC-theta/PKC-delta selectivity (binned) [1] | IC50 [2, 4] | IC50 [2, 5] | IC50 [3, 6] | IC50 [3, 7] |
| --- | --- | --- | --- | --- | --- | --- |
| C[C@H]1CNCCN1c1cc(F)cc(-c2ccnc3c2C(C)(O)C(=O)N3)c1 (stereo partly drawn) [Example 58] | 7 | E (a ratio of between 5 and 10) | 10 to 31.6 nM | 12.6 nM | 316 to 1000 nM | 316 nM |
| C[C@@H]1CNCCN1c1cc(F)cc(-c2ccnc3c2C(C)(O)C(=O)N3)c1 (stereo partly drawn) [Example 59] | 5 | F (a ratio of between 1 and 5) | 3.16 to 10 nM | 5.01 nM | 100 to 316 nM | 126 nM |
| CC1(O)C(=O)Nc2nccc(-c3cc(N4CCNCC4)ccc3F)c21 (stereo not drawn) [Example 60] | 4 | F (a ratio of between 1 and 5) | 100 to 316 nM | 126 nM | > 1000 nM | 1580 nM |
| Cc1cc(-c2ccnc3c2C(C)(C)C(=O)N3)cc(N2CCNCC2)c1 [Example 61] | 6 | E (a ratio of between 5 and 10) | 31.6 to 100 nM | 50.1 nM | 316 to 1000 nM | 794 nM |
| CC1(C)C(=O)Nc2ncc(C#N)c(-c3cc(F)cc(N4CCNCC4)c3)c21 [Example 64] | 2 | F (a ratio of between 1 and 5) | 316 to 1000 nM | 501 nM | > 1000 nM | 5010 nM |
| CC1(C)C(=O)Nc2nccc(-c3cc(Cl)cc(N4CCNCC4)n3)c21 [Example 65] | 14 | D (a ratio of between 10 and 20) | 1 to 3.16 nM | 2 nM | 100 to 316 nM | 200 nM |
| CC1(C)C(=O)Nc2nccc(-c3cc(C(F)(F)F)cc(N4CCNCC4)n3)c21 [Example 66] | 13 | D (a ratio of between 10 and 20) | 3.16 to 10 nM | 5.01 nM | 31.6 to 100 nM | 79.4 nM |
| CC1(C)C(=O)Nc2nccc(-c3cccc(N4CCNC(Cc5cccnc5)C4)c3)c21 (stereo not drawn) [Example 67] | 3 | F (a ratio of between 1 and 5) | 31.6 to 100 nM | 50.1 nM | > 1000 nM | 1000 nM |
| O=c1[nH]c2nccc(-c3cc(C(F)(F)F)cc(N4CCNCC4)n3)c2[nH]1 [Example 68] | 11 | D (a ratio of between 10 and 20) | 31.6 to 100 nM | 31.6 nM | 316 to 1000 nM | 501 nM |
| CC1(C)C(=O)Nc2ncc(Br)c(-c3cc(F)cc(N4CCNCC4)c3)c21 [Example 69] | 1 | F (a ratio of between 1 and 5) | 31.6 to 100 nM | 39.8 nM | 316 to 1000 nM | 398 nM |
| CC1(C)C(=O)Nc2nccc(-c3cc(C(F)(F)F)cc(C4(CO)CCNC4)n3)c21 (stereo not drawn) [Example 70] | 30 | B (a ratio of between 30 and 50) | 1 to 3.16 nM | 2.51 nM | 316 to 1000 nM | 398 nM |
| CC[C@H]1CN(c2cc(C(F)(F)F)cc(-c3ccnc4c3C(C)(O)C(=O)N4)n2)CCN1 (stereo partly drawn) [Example 71] | 12 | D (a ratio of between 10 and 20) | 1 to 3.16 nM | 1.26 nM | 31.6 to 100 nM | 31.6 nM |
| CC[C@@H]1CN(c2cc(C(F)(F)F)cc(-c3ccnc4c3C(C)(O)C(=O)N4)n2)CCN1 (stereo partly drawn) [Example 72] | 12 | D (a ratio of between 10 and 20) | 10 to 31.6 nM | 25.1 nM | 100 to 316 nM | 316 nM |
| C[C@@H]1CN(c2cc(Cl)cc(-c3ccnc4c3C(C)(O)C(=O)N4)n2)CCN1 (stereo partly drawn) [Example 73] | 11 | D (a ratio of between 10 and 20) | 3.16 to 10 nM | 6.31 nM | 100 to 316 nM | 126 nM |
| C[C@H]1CN(c2cc(Cl)cc(-c3ccnc4c3C(C)(O)C(=O)N4)c2)CCN1 (stereo partly drawn) [Example 75] | 11 | D (a ratio of between 10 and 20) | 3.16 to 10 nM | 7.94 nM | 100 to 316 nM | 158 nM |
